Test results taken from patent US9943529B2, “Methods for reducing cellular proliferation and treating certain diseases” (BRIGHAM YOUNG UNIVERSITY, priority 2013, dated 2018).

Legend:
[1] = tested on: M14; conditions: 48 hours, five 10-fold dilutions starting from 100 μM
[2] = tested on: HCC-2998; experiment: cells; conditions: Homo sapiens, HCC 2998, 48 h
[3] = tested on: T-47D; conditions: 48 hours, five 10-fold dilutions starting from 100 μM
[4] = tested on: NCI-H522; conditions: 48 hours, five 10-fold dilutions starting from 100 μM
[5] = tested on: HCC-2998; conditions: 48 hours, five 10-fold dilutions starting from 100 μM
[6] = tested on: IGROV1; experiment: cells; conditions: Homo sapiens, IGROV-1, 48 h
[7] = tested on: A549/ATCC; conditions: 48 hours, five 10-fold dilutions starting from 100 μM
[8] = tested on: RXF 393; conditions: 48 hours, five 10-fold dilutions starting from 100 μM
[9] = tested on: BT-549; conditions: 48 hours, five 10-fold dilutions starting from 100 μM
[10] = tested on: DU-145; experiment: cells; conditions: Homo sapiens, DU-145, 48 h
[11] = tested on: OVCAR-3; experiment: cells; conditions: Homo sapiens, OVCAR-3, 48 h
[12] = tested on: HS 578T; experiment: NCI screen antiproliferative activity, sulforhodamine B, Breast Cancer panel; assay type: cell-based, human; conditions: 48 hours, five 10-fold dilutions starting from 100 μM
[13] = tested on: UO-31; experiment: cells; conditions: Homo sapiens, UO-31, 48 h

CCCCCCCCNCCC[C@@H](C)[C@H]1CC[C@H]2[C@@H]3[C@H](OCCCN)C[C@@H]4C[C@H](OCCCN)CC[C@]4(C)[C@H]3C[C@H](OCCCN)[C@]12C [CSA-13]
TGI [1]: 3.52 µM | GI50 [2]: 1.51 µM | CC50 ([2]; read-out: LC50): 13.3 µM | TGI [3]: 7.13 µM | TGI [4]: 10.5 µM | TGI [5]: 3.98 µM | GI50 [6]: 1.44 µM | CC50 ([6]; read-out: LC50): 8.67 µM | TGI [7]: 9.33 µM | TGI [8]: 15.6 µM | TGI [9]: 3.28 µM | GI50 [10]: 1.14 µM | CC50 ([10]; read-out: LC50): 4.85 µM | GI50 [11]: 2.24 µM | CC50 ([11]; read-out: LC50): 88 µM | TGI [12]: 2.35 µM | GI50 ([12]; Homo sapiens): 0.854 µM | GI50 [13]: 1.49 µM | CC50 ([13]; read-out: LC50): > 100 µM
